What all share (assay): Eurofins kinase selectivity profile against 380 other human recombinant kinases (Table S2)
What all share (type): biochemical

Test [1] concerns the target T1, 380 human recombinant protein kinases (Homo sapiens, UniProt Q13315).
T1 construct: purchased Eurofins (Celle Lévescault)
The settings on record: ATM(h), read-out: Inhibition rate (%). In a few lines: (§1)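 The inhibitor was sent to a contract lab and screened at various concentrations against 380 human recombinant protein kinases. This served as a counter-screen for MK2 specificity.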

Test [2] addresses T2, 380 human recombinant protein kinases (Homo sapiens, UniProt O75914).
T2 construct: purchased Eurofins (Celle Lévescault)
The settings on record: PAK3(h), read-out: Inhibition rate. In a few lines:
as §1

For test [3], the target named is T3, 380 human recombinant protein kinases (Homo sapiens, UniProt O00329).
T3 construct: purchased Eurofins (Celle Lévescault)
T3 sequence (O00329 1-1044): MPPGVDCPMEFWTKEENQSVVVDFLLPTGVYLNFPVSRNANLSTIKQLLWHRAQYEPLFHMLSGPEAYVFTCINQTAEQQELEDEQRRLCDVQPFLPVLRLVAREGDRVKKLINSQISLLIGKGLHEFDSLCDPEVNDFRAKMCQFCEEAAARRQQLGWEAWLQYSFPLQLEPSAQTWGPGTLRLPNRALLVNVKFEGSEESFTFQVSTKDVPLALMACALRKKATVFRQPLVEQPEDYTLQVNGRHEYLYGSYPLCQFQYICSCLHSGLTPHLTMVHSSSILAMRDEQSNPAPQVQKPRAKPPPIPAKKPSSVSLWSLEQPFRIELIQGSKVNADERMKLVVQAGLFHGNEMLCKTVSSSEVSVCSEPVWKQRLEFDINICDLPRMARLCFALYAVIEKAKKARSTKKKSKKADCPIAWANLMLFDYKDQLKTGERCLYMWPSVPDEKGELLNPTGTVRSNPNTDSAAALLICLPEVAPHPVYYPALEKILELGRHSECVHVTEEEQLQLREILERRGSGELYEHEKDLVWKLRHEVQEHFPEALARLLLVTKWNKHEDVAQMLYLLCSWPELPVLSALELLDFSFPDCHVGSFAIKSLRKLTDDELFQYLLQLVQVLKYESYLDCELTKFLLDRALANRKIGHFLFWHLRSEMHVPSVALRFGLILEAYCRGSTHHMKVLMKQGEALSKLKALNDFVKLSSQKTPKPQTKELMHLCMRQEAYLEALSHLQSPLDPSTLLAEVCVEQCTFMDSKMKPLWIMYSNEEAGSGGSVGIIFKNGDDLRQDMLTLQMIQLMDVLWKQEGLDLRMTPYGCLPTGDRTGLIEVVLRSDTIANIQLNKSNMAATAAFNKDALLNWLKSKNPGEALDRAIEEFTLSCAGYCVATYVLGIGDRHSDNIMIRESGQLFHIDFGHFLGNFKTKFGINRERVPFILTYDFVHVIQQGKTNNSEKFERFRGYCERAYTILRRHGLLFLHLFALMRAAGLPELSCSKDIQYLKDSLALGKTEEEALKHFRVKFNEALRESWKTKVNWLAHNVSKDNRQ
As to conditions: PI3 Kinase (p110δ/p85α)(h), read-out: Inhibition rate (%). Summed up:
as §1

The target of test [4] is T4, 380 human recombinant protein kinases (Homo sapiens, UniProt P21709).
T4 construct: purchased Eurofins (Celle Lévescault)
T4 sequence (P21709 26-976): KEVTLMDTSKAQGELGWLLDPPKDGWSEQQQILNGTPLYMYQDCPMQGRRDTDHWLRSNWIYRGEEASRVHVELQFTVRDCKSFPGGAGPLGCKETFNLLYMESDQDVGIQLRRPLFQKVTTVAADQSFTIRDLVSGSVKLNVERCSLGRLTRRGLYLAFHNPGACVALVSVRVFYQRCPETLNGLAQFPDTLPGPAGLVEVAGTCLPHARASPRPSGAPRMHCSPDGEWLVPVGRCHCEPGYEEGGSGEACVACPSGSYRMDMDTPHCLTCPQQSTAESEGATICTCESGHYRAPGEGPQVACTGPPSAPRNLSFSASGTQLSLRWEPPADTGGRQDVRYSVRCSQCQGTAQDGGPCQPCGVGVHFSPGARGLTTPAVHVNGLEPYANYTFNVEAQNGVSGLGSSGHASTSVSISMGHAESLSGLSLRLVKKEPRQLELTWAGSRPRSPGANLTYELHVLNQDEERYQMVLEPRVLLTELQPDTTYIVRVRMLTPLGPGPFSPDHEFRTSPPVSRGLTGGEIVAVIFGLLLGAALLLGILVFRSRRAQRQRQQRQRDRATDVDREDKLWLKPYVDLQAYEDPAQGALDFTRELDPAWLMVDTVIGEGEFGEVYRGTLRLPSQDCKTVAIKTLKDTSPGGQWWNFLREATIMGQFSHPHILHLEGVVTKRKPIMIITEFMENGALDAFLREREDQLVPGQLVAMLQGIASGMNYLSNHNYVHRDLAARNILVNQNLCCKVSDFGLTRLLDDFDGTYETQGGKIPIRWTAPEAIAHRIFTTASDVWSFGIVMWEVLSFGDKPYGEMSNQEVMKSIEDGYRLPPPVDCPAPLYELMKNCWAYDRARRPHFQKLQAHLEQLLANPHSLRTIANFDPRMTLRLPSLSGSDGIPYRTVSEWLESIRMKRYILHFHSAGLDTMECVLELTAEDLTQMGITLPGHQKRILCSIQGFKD
As to conditions: EphA1(h), read-out: Inhibition rate. In a few lines: as §1

The target of test [5] is T5, 380 human recombinant protein kinases (Homo sapiens, UniProt P51957).
T5 construct: purchased Eurofins (Celle Lévescault)
As to conditions: NEK4(h), read-out: Inhibition rate. In a few lines:
as §1

Test [6] deals with T6, 380 human recombinant protein kinases (Homo sapiens, UniProt Q9P0L2).
T6 construct: purchased Eurofins (Celle Lévescault)
T6 sequence (Q9P0L2 whole entry): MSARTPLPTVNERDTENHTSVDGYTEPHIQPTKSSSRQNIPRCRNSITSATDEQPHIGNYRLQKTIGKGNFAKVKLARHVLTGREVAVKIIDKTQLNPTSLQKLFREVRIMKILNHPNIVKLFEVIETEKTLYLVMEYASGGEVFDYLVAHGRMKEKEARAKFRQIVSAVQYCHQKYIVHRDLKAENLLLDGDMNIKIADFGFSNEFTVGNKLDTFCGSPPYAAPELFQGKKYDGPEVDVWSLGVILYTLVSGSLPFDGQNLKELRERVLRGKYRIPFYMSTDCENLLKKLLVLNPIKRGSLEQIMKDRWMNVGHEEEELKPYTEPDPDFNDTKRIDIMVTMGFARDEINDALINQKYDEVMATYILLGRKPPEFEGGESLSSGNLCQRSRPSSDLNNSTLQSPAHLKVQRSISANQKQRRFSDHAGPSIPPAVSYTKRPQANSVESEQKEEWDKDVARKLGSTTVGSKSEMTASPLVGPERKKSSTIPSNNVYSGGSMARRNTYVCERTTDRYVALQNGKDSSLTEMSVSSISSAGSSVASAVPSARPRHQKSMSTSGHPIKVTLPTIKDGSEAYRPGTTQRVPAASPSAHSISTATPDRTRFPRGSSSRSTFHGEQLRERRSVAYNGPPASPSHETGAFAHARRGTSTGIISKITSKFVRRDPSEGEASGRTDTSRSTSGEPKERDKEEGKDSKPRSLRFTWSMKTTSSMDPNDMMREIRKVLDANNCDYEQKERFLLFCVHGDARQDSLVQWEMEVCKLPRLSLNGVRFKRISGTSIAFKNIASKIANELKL
The settings on record: MARK1(h), read-out: Inhibition rate. In a few lines:
as §1

We go through one compound from PMC11233931, “Remodeling tumor‐associated macrophage for anti‐cancer effects by rational design of irreversible inhibition of mitogen‐activated protein kinase‐activated protein kinase 2” (MedComm, 2024).

T1 sequence (Q13315 whole entry): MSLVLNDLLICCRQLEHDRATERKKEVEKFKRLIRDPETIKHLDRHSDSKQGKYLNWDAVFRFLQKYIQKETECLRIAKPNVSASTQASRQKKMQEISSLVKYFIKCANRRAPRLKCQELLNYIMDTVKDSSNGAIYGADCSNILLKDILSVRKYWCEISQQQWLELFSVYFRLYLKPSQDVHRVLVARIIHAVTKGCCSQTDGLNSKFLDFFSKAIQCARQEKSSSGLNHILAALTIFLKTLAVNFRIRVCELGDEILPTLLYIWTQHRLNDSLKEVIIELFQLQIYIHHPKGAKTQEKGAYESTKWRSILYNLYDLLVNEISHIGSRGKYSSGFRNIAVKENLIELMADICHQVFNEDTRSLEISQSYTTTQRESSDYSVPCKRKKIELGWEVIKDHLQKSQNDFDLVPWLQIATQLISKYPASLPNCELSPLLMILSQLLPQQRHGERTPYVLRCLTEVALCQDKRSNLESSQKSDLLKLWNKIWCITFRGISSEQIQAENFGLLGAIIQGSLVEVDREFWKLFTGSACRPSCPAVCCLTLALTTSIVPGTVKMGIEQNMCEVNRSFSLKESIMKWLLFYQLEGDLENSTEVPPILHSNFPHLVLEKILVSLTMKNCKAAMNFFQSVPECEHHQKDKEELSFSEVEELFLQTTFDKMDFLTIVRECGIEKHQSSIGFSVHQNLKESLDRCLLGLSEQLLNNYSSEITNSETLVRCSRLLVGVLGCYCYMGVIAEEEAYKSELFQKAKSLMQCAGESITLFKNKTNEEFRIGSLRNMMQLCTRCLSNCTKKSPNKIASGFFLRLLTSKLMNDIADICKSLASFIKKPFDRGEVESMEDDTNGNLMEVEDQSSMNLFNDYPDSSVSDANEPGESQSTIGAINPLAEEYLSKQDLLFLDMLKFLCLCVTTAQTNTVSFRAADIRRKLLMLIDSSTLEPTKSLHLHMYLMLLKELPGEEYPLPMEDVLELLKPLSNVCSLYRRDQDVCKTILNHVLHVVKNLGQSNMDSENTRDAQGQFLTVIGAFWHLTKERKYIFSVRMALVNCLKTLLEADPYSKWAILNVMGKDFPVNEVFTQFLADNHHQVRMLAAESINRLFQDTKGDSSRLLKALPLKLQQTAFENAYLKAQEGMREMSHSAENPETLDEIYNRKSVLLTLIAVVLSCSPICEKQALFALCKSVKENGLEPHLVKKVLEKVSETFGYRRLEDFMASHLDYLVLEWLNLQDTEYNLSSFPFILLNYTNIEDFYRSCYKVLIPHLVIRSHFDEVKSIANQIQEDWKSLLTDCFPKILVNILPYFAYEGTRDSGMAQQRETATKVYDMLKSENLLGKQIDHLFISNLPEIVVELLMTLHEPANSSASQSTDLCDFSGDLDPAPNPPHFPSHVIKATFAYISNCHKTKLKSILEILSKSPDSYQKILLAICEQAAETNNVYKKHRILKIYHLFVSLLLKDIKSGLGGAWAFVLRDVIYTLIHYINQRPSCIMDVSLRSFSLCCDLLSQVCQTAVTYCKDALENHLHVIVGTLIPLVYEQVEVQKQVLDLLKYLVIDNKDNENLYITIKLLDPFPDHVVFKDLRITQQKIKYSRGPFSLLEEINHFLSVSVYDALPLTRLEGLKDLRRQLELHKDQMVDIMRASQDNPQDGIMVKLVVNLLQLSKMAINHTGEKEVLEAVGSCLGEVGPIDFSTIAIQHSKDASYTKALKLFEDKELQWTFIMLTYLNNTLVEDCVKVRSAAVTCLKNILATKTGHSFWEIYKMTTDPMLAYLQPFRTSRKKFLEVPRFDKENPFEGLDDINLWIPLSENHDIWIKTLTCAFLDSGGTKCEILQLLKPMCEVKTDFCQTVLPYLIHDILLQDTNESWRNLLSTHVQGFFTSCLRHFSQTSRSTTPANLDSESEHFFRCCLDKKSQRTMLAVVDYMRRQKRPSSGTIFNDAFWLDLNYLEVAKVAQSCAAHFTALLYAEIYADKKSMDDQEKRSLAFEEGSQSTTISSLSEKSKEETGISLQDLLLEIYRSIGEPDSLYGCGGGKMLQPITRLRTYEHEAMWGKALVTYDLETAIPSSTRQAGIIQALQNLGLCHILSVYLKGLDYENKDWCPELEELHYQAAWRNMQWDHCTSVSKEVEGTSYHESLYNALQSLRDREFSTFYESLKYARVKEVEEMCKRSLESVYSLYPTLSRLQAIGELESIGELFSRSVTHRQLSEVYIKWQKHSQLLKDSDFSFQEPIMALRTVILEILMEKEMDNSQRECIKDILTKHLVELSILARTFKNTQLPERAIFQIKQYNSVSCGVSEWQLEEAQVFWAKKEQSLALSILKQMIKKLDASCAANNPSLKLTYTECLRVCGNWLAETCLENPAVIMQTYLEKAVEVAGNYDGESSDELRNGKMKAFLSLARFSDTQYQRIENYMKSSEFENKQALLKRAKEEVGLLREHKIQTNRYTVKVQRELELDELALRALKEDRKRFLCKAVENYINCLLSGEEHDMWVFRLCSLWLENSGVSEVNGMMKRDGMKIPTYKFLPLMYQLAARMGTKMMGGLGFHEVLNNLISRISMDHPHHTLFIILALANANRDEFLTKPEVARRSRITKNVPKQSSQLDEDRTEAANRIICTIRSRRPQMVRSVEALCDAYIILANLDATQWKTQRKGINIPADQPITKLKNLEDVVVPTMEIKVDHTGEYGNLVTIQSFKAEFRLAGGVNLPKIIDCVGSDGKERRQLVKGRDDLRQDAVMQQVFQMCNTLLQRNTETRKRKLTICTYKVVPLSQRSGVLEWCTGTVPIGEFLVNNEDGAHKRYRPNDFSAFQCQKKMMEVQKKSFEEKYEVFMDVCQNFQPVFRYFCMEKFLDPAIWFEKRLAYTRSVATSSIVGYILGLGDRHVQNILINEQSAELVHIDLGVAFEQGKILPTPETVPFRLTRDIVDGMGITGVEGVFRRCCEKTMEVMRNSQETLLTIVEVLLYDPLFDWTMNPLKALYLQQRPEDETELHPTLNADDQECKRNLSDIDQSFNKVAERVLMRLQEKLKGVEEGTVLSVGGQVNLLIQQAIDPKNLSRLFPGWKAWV
T2 sequence (O75914 whole entry): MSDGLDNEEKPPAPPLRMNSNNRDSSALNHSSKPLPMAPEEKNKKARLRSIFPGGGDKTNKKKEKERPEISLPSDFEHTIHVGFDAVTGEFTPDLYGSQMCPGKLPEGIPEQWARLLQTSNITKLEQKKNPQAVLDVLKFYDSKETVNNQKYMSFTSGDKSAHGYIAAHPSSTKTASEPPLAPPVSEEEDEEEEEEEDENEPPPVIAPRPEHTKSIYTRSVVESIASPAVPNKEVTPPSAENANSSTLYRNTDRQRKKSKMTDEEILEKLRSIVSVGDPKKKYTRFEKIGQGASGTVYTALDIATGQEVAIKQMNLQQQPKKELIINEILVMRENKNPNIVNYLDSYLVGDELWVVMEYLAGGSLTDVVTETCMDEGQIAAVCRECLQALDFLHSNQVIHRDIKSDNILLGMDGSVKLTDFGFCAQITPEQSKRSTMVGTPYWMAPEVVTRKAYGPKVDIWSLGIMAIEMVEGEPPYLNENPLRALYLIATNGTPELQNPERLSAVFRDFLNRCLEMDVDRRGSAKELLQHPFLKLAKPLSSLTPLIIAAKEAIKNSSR

Turning to `C=CC(=O)Nc1cc(-c2cc(-c3cc4c([nH]3)CCNC4=O)ccn2)ccc1OC(F)(F)F` [compound 11], the inhibition (usually the drop in the measured response relative to a control, in per cent) at 0.01 µM was -3% in test [1] (10 nM); -4% in test [2] (10 nM); -3% in test [3] (10 nM); -2% in test [4] (10 nM); -2% in test [5] (10 nM); -1% in test [6] (10 nM). For the same compound, the inhibition at 0.1 µM is -6% in test [1] (100 nM); 0% in test [2] (100 nM); -1% in test [3] (100 nM); -5% in test [4] (100 nM); 5% in test [5] (100 nM); -12% in test [6] (100 nM). Moreover, the inhibition at 1 µM in test [1] (1000 nM) was -9%; in test [2] (1000 nM) it was -3%; in test [3] (1000 nM) it was 2%; in test [4] (1000 nM) it was -2%; in test [5] (1000 nM) it was 34%; in test [6] (1000 nM), -4%.
